For series [1] the following is noted: for Mean values of the initial boron retention: before leaching, (standard deviations); for Mean of boron retained in wood (std. dev): mean of three samples. As to the method:
Accelerated leaching tests were performed according to AWPA E11-97 (AWPA, 2003). Four Southern yellow pine (Pinus sp.) samples were leached, each in its own leaching flask. At the end of each leaching period, the leachate was collected and the samples were air dried for two weeks. The amount of boron retained in the wood was determined by inductive coupled plasma (ICP) spectrometry after boron was extracted with hydrochloric acid from the ground wood.

The next series has as its system Brown rot. To be noted: 12 weeks decay. As to the method:
(§1) Decay tests were conducted on wood blocks, both leached and unleached. Samples were halved, with one group subjected to weathering and the other group maintained unweathered. Both sets of samples were subjected to a soil block culture test according to the AWPA E10-01 method. For each block, the percentage of mass loss was determined. These samples were allowed to decay for 12 weeks for brown rot decay and for 16 weeks for white rot decay.

The subject of another series is White rot. The note with it: for % mass loss (std. dev): White rot, 16 weeks decay. As to the method: as §1

Structures are written as SMILES. Read-outs that look alike come from different tables or passages of the source. Marks after values point to notes of the source that are not given here.

Text for Coptotermes formosanus: The wood cubes also were subjected to a termite mortality test (Coptotermes formosanus).

For the molecule `OB(O)O` [Boric acid only, Boric acid], the “Mean values of the initial boron retention” value is listed as 2075.0^a (2.19)^b ppm in series [1] (Southern yellow pine cubes, samples for Leaching test); 2227.31 (3.27) ppm in series [1] (samples for Brown rot test); 2225.43 (1.27) ppm in series [1] (samples for White rot test). Moreover, the “Mean of boron retained in wood (std. dev)” value is 2075.0 (80.18) ppm in series [1] (leaching duration 0 (Not unleached)); 1005.00 (125.2) ppm in series [1] (leaching duration 6 hours); 737.13 (40.85) ppm in series [1] (leaching duration 24 hours); 99.32 (17.84) ppm in series [1] (leaching duration 2 days); 25.37 (2.81) ppm in series [1] (leaching duration 4 days); 2.908 (0.61) ppm in series [1] (leaching duration 6 days). Moreover, the “Mean of boron retained in wood (std. dev)” value in series [1] (leaching duration 8 days) is given as 2.941 (0.83) ppm; in series [1] (leaching duration 10 days) it was 2.89 (0.79) ppm; in series [1] (leaching duration 12 days), 2.79 (0.53) ppm; in series [1] (leaching duration 14 days), 2.8 (0.82) ppm. The “loss of boron on leaching (in words)” value in series [1] (leaching of treated wood cubes) is “lost most of their boron within 6 hours”. Moreover, the “% mass loss (std. dev)” value in the series on Brown rot (Not leached samples) was 3.21 (0.22) %; in the series on Brown rot (leached samples) it was 18.88 (2.30) %; with White rot (Not leached samples) it was 2.51 (0.51) %; in the series on White rot (leached samples), 16.59 (2.19) %. Also, the “decay resistance (in words)” value with White rot (leached samples, summary of Table 4 for white rot and brown rot) was “no significant decay resistance”. For the same molecule, the “Termite mortality (%)” value in the series on Coptotermes formosanus (in vivo) was 4.3%. For the same molecule, the “protection against termites (in words)” value in the series with Coptotermes formosanus (treated wood cubes, boron-CA-SS after leaching) is “adequate protection against termites”.

(Values after US9414598B2, “Protecting wood with stabilized boron complexes” (priority 2006, dated 2016).)
